# Reference: patent US8986696B2, “Trans-capsular administration of p38 map kinase inhibitors into orthopedic joints” (DePuy Mitek, Inc., priority 2007, dated 2015)
# Legend:
# [1] = tested on: injured cartilage explants, PGE2 synthesis; assay: drop tower design model: PGE2 synthesis; format: cell-based, bovine; details: cocktail of cytokines
# Excerpt: The device comprises a vertical rail that guides a sliding weight from 0.1 kg to 3 kg directly onto a force transducer which is situated at the bottom of the device. A sphere-shaped 2 mm indenter resting on a specimen is located at the bottom of the vertical rail. The indenter is held by a stop screw. The specimen is rigidly attached to a tissue holder underneath the indenter, to avoid side movements, the specimen is rigidly attached to the tissue holder. In this manner, the force transducer transduces a force indirectly onto the specimen. Adjusting the weight of a mass and height from which the mass drops varies the magnitude of the intended impact. For example, a weight mass (e.g., […]) held by a weight holder can be released from a height of e.g., 36 cm and dropped onto the force transducer. […]
# In the first method, bovine or human PBMCs were freshly prepared using Ficoll gradient by Lampire Biological Laboratories, Inc. PBMCs in RPMI w/10% FCS at delivery were spun down at 1500 rpm for twenty minutes and the cell pellet was washed twice with 1×PBS to wash off the residual Ficoll. […] Each conditioned medium was assessed for levels of pro-inflammatory cytokines to ensure their secretion from PBMC. […]
# PGE2 was measured with STAT-Prostaglandin E2 EIA ELISA kit (Cayman Biochemicals), as described in Example III above. […]
# [2] = tested on: rabbit anterior cruciate ligament transection (ACLT) model of osteoarthritis; assay: ACLT model, p38 MAP kinase inhibitors (Example VII); format: in vivo; set-up: key to Clinical Scoring - Total Score, Mean / Clinical Scoring - Trochlear Groove Effects, Mean / Clinical Scoring - All Tibial Plateau Effects, Mean / Clinical Scoring - All Cartilage Effects, Mean / Clinical Scoring - All Condylar Effects, Mean: gross joint damage score; higher = more damage; details: for All Condylar Effects: at the low dose; for Total Score / All Cartilage Effects: both doses; for All Cartilage Effects: compared to the non-injected control group; for lateral femoral condyle surface erosion: high and low dose
# Description: New Zealand white rabbits (male, six to eight pounds) were anesthetized with ketamine (17 mg/kg) and xylazine (2.5 mg/kg). Supplementation was given during surgery, if needed, with an additional intramuscular injection of ketamine (35 mg/kg) and xylazine (5 mg/kg). The animals were given buprenorphine (0.01-0.05 mg/kg) for analgesia via a subcutaneous injection. The buprenorphine was administered every twelve hours for seventy-two hours. After induction of anesthesia, the right leg was clipped free of hair using electric animal clippers. The area around the site of surgery was scrubbed with chlorhexidine diacetate, rinsed with alcohol, dried, and painted with an aqueous iodophor solution of 1% available iodine and surgery was prepared using aseptic technique. In the right limb of each animal, the anterior cruciate ligament (ACL) was transected. A medial parapatellar incision was made and the patella was dislocated. The knee was flexed and the ACL visualized. A scalpel blade was positioned behind the ACL and brought anteriorly, thereby cutting the ACL while protecting the posterior cruciate ligament. The patella was returned to the normal anatomic position. The wound was closed in layers.
# Following surgery, the animals were left untreated for six weeks. After six weeks, a series of five injections of the test compound were injected intra-articularly once weekly.
# The animals were euthanized six weeks after initiation with an intravenous injection of pentobarbital (60 mg/kg). […] Immediately following euthanasia, gross observations of the knee joints were made and any abnormality was recorded. The joints were analyzed for disease state in the trochlear groove, the femoral condyles and the tibial plateau. Pathological assessments were performed on the sectioned tissue. Condylar structure, cellularity, presence of GAG and presence of cartilage were evaluated.
# Sterile formulations of the test compounds were prepared by gamma irradiating (15 kGy) them on dry ice. […] All formulations were prepared in an aseptic manner by dispersing the drug into ARTHREASE®. […] The drug was delivered in a volume of 160 μL at a concentration of […]. The low dose was made by diluting with ARTHREASE® to the final concentration.
# Ninety-six (96) rabbits underwent ACLT on the right knee (n=ten per group) according to the ACLT model. Anesthesia, analgesia, surgical preparation, surgery, intra-articular injections, and euthanasia were conducted according to the ACLT model.
# At the time of sacrifice, the following parameters were evaluated grossly (the scale follows in parenthesis):
# Each parameter was given a score. The combination of all parameters gave a Total Score. A higher score indicates more damage to the joint. […] Individual results for each parameter assessed were tabulated. Data for the individual scores is not shown.
# [3] = molecular target: COX1 (Homo sapiens, UniProt P23219); assay: COX1 inhibition; format: biochemical
# Chain of COX1 (P23219 24-599): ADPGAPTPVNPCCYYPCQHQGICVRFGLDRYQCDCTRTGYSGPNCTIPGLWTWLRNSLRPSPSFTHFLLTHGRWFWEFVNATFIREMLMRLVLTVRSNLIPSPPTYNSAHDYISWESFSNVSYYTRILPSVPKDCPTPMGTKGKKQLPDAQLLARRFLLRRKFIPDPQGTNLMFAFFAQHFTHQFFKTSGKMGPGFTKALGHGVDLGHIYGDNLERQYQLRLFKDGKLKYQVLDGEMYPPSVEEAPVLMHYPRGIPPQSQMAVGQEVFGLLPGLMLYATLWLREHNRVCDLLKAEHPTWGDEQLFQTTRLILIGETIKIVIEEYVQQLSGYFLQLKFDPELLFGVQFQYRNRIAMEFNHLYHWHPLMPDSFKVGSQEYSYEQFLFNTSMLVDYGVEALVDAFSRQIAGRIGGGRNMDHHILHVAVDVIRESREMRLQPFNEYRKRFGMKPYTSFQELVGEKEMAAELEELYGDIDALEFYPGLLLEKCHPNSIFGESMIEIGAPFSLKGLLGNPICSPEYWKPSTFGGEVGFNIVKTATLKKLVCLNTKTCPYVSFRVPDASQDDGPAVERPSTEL
# [4] = molecular target: COX2 (Homo sapiens, UniProt P35354); assay: COX2 inhibition; format: biochemical
# Chain of COX2 (P35354 18-604): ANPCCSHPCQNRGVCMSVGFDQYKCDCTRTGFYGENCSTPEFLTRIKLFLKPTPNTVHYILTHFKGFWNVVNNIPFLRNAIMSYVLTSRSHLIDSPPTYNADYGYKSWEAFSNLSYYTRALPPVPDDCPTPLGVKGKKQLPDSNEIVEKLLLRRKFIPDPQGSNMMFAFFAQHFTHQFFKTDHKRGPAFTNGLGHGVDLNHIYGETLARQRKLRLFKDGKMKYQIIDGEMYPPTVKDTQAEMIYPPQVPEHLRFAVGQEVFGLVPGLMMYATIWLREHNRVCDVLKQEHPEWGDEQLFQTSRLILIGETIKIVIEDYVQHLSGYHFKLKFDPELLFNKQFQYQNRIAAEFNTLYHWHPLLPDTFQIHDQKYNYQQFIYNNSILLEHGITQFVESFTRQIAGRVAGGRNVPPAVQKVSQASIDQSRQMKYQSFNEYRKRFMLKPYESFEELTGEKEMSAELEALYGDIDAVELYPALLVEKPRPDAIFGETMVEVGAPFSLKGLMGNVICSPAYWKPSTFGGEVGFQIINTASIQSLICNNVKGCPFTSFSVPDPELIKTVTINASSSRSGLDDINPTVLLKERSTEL
Structure (SMILES),"PGE2 synthesis, inhibition [1]",All Condylar Effects [2],Total Score [2],All Cartilage Effects [2],lateral femoral condyle surface erosion [2],"Clinical Scoring - All Cartilage Effects, Mean ([2]; high dose)","Clinical Scoring - All Condylar Effects, Mean ([2]; high dose)","Clinical Scoring - All Tibial Plateau Effects, Mean ([2]; high dose)","Clinical Scoring - Total Score, Mean ([2]; high dose)","Clinical Scoring - Trochlear Groove Effects, Mean ([2]; high dose)","Clinical Scoring - All Cartilage Effects, Mean ([2]; low dose)","Clinical Scoring - All Condylar Effects, Mean ([2]; low dose)","Clinical Scoring - All Tibial Plateau Effects, Mean ([2]; low dose)","Clinical Scoring - Total Score, Mean ([2]; low dose)","Clinical Scoring - Trochlear Groove Effects, Mean ([2]; low dose)",IC50 [3] [µM],IC50 [4] [µM]
"OCCC#Cc1nc(-c2ccc(F)cc2)c(-c2ccncc2)n1CCCc1ccccc1 [JNJ 3026582 (RWJ 67657), 4-[4-(4-fluorophenyl)-1-(3-phenylpropyl)-5-(4-pyridinyl)-1H-imidazol-2-yl]-3-butyn-1-ol]",dose-dependently inhibited,no effect,Neither JNJ 3026582 (RWJ 67657) nor SCIO-282 (SD 282) had an effect,no efficacy,no effect,9.75,6.25,2.25,16.58,7.92,7.58,4.71,1.63,14.17,7.75,–,–
CC(=O)N1CCN(c2c(-c3ccncc3)c(-c3ccc(F)cc3)c(C#N)n2C)CC1 [JNJ 17089540 (RWJ 669307)],–,decrease in overall clinical score,trended downward,reduction in scores,efficacious in reducing the clinical score,6.21,3.75,2.38,12.46,6.25,5,2.68,1.95,10.41,5.55,> 10,> 10
